Measured values reported in ChEMBL document CHEMBL1145662, “Catharanthus alkaloids, XXXVIII. Confirming structural evidence and antineoplastic activity of the bisindole alkaloids leurosine-N'b-oxide (pleurosine), roseadine and vindolicine from Catharanthus roseus” (J Nat Prod, 1983).

Assays:
B16 [1] = assay: Antitumor activity against mouse B16 cells xenografted in B6C3F1 mouse at 0.5 mg/kg relative to control; format: functional
P388 [2] = assay: Antitumor activity against mouse P388 cells xenografted in CD2F1 mouse at 2 mg/kg relative to control; format: functional
L1210 [3] = assay: Antitumor activity against mouse L1210 cells xenografted in CD2F1 mouse at 20 mg/kg for 1 to 9 days relative to control; format: functional
L1210 [4] = assay: Antitumor activity against mouse L1210 cells xenografted in CD2F1 mouse at 10 mg/kg for 1 to 9 days relative to control; format: functional
L1210 [5] = assay: Antitumor activity against mouse L1210 cells xenografted in CD2F1 mouse at 5 mg/kg for 1 to 9 days relative to control; format: functional
MC-38 [6] = assay: Antitumor activity against mouse Colon 38 cells xenografted in Swiss mouse at 20 mg/kg for 1 to 2 days relative to control; format: functional
MC-38 [7] = assay: Antitumor activity against mouse Colon 38 cells xenografted in Swiss mouse at 10 mg/kg for 1 to 2 days relative to control; format: functional
MC-38 [8] = assay: Antitumor activity against mouse Colon 38 cells xenografted in Swiss mouse at 5 mg/kg for 1 to 2 days relative to control; format: functional
B16 [9] = assay: Antitumor activity against mouse B16 cells xenografted in B6C3F1 mouse at 10 mg/kg for 1 to 9 days relative to control; format: functional
B16 [10] = assay: Antitumor activity against mouse B16 cells xenografted in B6C3F1 mouse at 5 mg/kg for 1 to 9 days relative to control; format: functional
B16 [11] = assay: Antitumor activity against mouse B16 cells xenografted in B6C3F1 mouse at 2.5 mg/kg for 1 to 9 days relative to control; format: functional
P388 [12] = assay: Antitumor activity against mouse P388 cells xenografted in CD2F1 mouse at 25 mg/kg for 1 to 9 days relative to control; format: functional
P388 [13] = assay: Antitumor activity against mouse P388 cells xenografted in CD2F1 mouse at 12.5 mg/kg for 1 to 9 days relative to control; format: functional
P388 [14] = assay: Antitumor activity against mouse P388 cells xenografted in CD2F1 mouse at 6.25 mg/kg for 1 to 9 days relative to control; format: functional
P388 [15] = assay: Antitumor activity against mouse P388 cells xenografted in CD2F1 mouse at 25 mg/kg on 3rd, 6th and 9th day relative to control; format: functional
P388 [16] = assay: Antitumor activity against mouse P388 cells xenografted in CD2F1 mouse at 12.5 mg/kg on 3rd, 6th and 9th day relative to control; format: functional
P388 [17] = assay: Antitumor activity against mouse P388 cells xenografted in CD2F1 mouse at 6.25 mg/kg on 3rd, 6th and 9th day relative to control; format: functional
P388 [18] = assay: Antitumor activity against mouse P388 cells xenografted in CD2F1 mouse at 32 mg/kg after 1 day relative to control; format: functional
P388 [19] = assay: Antitumor activity against mouse P388 cells xenografted in CD2F1 mouse at 16 mg/kg after 1 day relative to control; format: functional
P388 [20] = assay: Antitumor activity against mouse P388 cells xenografted in CD2F1 mouse at 8 mg/kg after 1 day relative to control; format: functional
P388 [21] = assay: Antitumor activity against mouse P388 cells xenografted in CD2F1 mouse at 4 mg/kg after 1 day relative to control; format: functional
CX-1 [22] = assay: Antitumor activity against human CX-1 cells xenografted in Swiss nu/nu athymic mouse at 160 mg/kg on 4th,8th,12th and 16th day relative to control; format: functional
CX-1 [23] = assay: Antitumor activity against human CX-1 cells xenografted in Swiss nu/nu athymic mouse at 80 mg/kg on 4th,8th,12th and 16th day relative to control; format: functional
CX-1 [24] = assay: Antitumor activity against human CX-1 cells xenografted in Swiss nu/nu athymic mouse at 40 mg/kg on 4th,8th,12th and 16th day relative to control; format: functional
CX-1 [25] = assay: Antitumor activity against human CX-1 cells xenografted in Swiss nu/nu athymic mouse at 20 mg/kg on 4th,8th,12th and 16th day relative to control; format: functional
Mus musculus = assay: Toxicity in mouse P388 cells xenografted in CD2F1 mouse at 20 mg/kg; format: organism-based; set-up: dose 20 mg/kg; conditions: in vivo
P388 [26] = assay: Antitumor activity against mouse P388 cells xenografted in CD2F1 mouse at 1 mg/kg relative to control; format: functional

Compound CC[C@]1(O)C[C@@H]2CN(CCc3c([nH]c4ccccc34)[C@@](C(=O)OC)(c3cc4c(cc3OC)N(C)[C@H]3[C@@](O)(C(=O)OC)[C@H](OC(C)=O)[C@]5(CC)C=CCN6CC[C@]43[C@@H]65)C2)C1 [VINBLASTINE] has a T/C (B16 [1]) of 309%.
CC[C@]1(O)CN2CCc3c([nH]c4ccccc34)[C@@H]1[C@@H](/C=C(\C(=O)OC)c1cc3c(cc1OC)N(C)C1[C@]34CCN3CC=C[C@](CC)(C34)[C@@H](OC(C)=O)[C@]1(O)C(=O)OC)C2 (some centres not stated) [ROSEADINE] was tested, and the T/C (P388 [2]) was 176%.
Compound CC[C@@]12C[N+]3([O-])CCc4c([nH]c5ccccc45)[C@@](C(=O)OC)(c4cc5c(cc4OC)N(C)[C@H]4[C@@](O)(C(=O)OC)[C@H](OC(C)=O)[C@]6(CC)C=CCN7CC[C@]54[C@@H]76)C[C@@H](C[C@@H]1O2)C3 has a T/C (L1210 [3]) of 112%, a T/C (L1210 [4]) of 133% and a T/C (L1210 [5]) of 101%. For the same compound, the T/C (MC-38 [6]) was 82%, the T/C (MC-38 [7]) was 108% and the T/C (MC-38 [8]) was 84%. It also gave a T/C (B16 [9]) of 309%, a T/C (B16 [10]) of 261% and a T/C (B16 [11]) of 189%. It also gave a T/C (P388 [12]) of 181%, a T/C (P388 [13]) of 163% and a T/C (P388 [14]) of 154%. For the same compound, the T/C (P388 [15]) was 181%, the T/C (P388 [16]) was 177% and the T/C (P388 [17]) was 168%. It also gave a T/C (P388 [18]) of 140%, a T/C (P388 [19]) of 193% and a T/C (P388 [20]) of 161%. It also gave a T/C (P388 [21]) of 142%, a T/C (CX-1 [22]) of 71% and a T/C (CX-1 [23]) of 85%. The T/C (CX-1 [24]) was 60%, the T/C (CX-1 [25]) was 81% and the Activity (Mus musculus) was “Toxic”.
Work on CC[C@@H]1C[C@H]2CN(CCc3c([nH]c4ccccc34)[C@@](C(=O)OC)(c3cc4c(cc3OC)N(C)[C@H]3[C@@](O)(C(=O)OC)[C@H](OC(C)=O)[C@]5(CC)C=CCN6CC[C@]43[C@@H]65)C2)C1 [ROSEAMINE] yielded a T/C (P388 [26]) of 161%.
